Laboratory results reported in US6451846B1, “Isocoumarin derivatives inhibiting angiogenesis” (Korea Research Institute of Bioscience and Biotechnology, priority 1999, dated 2002).
Entries after “also recorded” stand apart in the source; their conditions may differ.

How the values were obtained:
[1] = Acute toxicity test with rat; settings: in vivo, 300 mg/kg; for Death and clinical symptoms / Toxic signs in weight change, serologic test, serobiochemical test, corpse examination: po; for LD50: rat, SD-rats, single oral administration, read-out: lethal dose (LD50)
Method: Specific pathogen-free (SPF) SD-rats (six weeks old) were used for the test of acute toxicity. Suspensions of the compounds of formulae 2 and 3 in 0.5% methyl cellulose were orally administered once at a dose of 300 mg/kg/10 ml to the rats. After the administration, the animals were observed as to their death, clinical symptoms and weight change, and serological and serobiochemically tested. An autopsy was made over the rats with the naked eye to observe whether their abdominal and thoracic organs were damaged. […] The compounds tested caused no toxic changes rats over the rats to the dose of 300 mg/lkg and thus, found to be safe compounds with a lethal dose (LD50) of at least 300 mg/kg when being administered via an oral route.

[2] = tested on: human umbilical vein endothelial cells (HUVEC); experiment: Inhibition of tube formation in human endothelial cells on Matrigel; type: cell-based; settings: for inhibition at 0.5 µg/mL: 0.5 μg/ml; for inhibition at 1 µg/mL: 1.0 μg/ml
Source text: In order to determine the inhibitory effect of the isocoumarin derivatives against the angiogenesis, in vitro, endothelial cells, HUVEC (human umbilical vein endothelial cell) are selected. Under a specific culture condition, endothelial cells are migrated and differentiated into capillary tubes. Similar to the angiogenesis in vivo, the tube formation assay may be a good model to determine the influence of the isocoumarin derivatives on angiogenesis.
Various concentrations of the two isocoumarin derivatives are added to endothelial cells to monitor under a microscope whether the isocoumarin derivatives inhibited the differentiation of endothelial cells into capillary tubes. From this experiment, the two isocoumarin derivatives are found to inhibit the angiogenesis in concentration-dependent manners. […] However, the differentiation of HUVEC into a capillary tube is inhibited by 6,8-dihydroxy-4-acetyl-isocoumarin down to the concentration of as low as 0.2 μg/ml.
To determine the inhibitory effect of the two compounds obtained in Example 1 on the angiogenesis in vitro, human umbilical vein endothelial cells (HUVEC) were used as a model on the basis that they are migrated and differentiated into capillary tubes on Matrigel HUVEC was cultured in a gelatin-coated culture flask with an M199 medium supplemented with 20% FBS, 2 ng/ml bFGF and 100 μg/ml heparin at 37° C. incubator in a humidified atmosphere containing 5% CO2. The cultured HUVEC were treated with trypsin/EDTA to make a single cell suspension, the cells were plated on Matrigel coated 96-well plates with an M199 medium supplemented with 20% FBS, 2 ng/ml bFGF and 100 μg/ml heparin) at a density of 2×10^4 cells/well. The two compounds obtained in Example 1 were independently added at various concentrations into the wells and the plate was incubated for 18-48 hours in a CO2 incubator. The formation of capillary-like tube was monitored under a microscope during the incubation. The cells in the well containing vehicle (DMSO) became to be robuster and longer hollow tube networks as incubation time went on, but the tubes in the wells containing samples were broken and shortened. The inhibitory activity against tube formation was compared with control by measuring the length of the capillary tubes formed.

[3] = tested on: chorioallantoic membranes at 4.5-day old chick embryo; experiment: Chorioallantoic membrane (CAM) assay, inhibition of angiogenesis in vivo; settings: positive eggs/used eggs × 100%
Method: Chorioallantoic membrane (CAM) assay was used to measure whether the two isocoumarin derivatives are effective to inhibit angiogenesis in vivo. Fertilized chick eggs were kept in a humidified incubator at 37° C. After 3 days incubation, egg albumin were removed with hypodermic needle to allow CAM and yolk sac to drop away from the shell membrane. On day 3.5, the shell was punched out and removed to be a circular window and the shell membrane was removed. For testing of angiogenesis inhibition, a pieces of thermanox coverslip was coated with various concentration of the isocoumarin derivatives. The thermanox coverslip was placed on the chorioallantoic membranes at 4.5-day old chick embryo. After 2 days incubation at 37° C., 10% fat emulsion was injected into chorioallantois and observed blood vessel formation during an embryogenesis or development procedure. As a positive control, retinoic acid was used and non-treated coverslip for negative control.
Chorioallantoic membrane (CAM) assay was used to measure whether the two compounds obtained in Example 1 are effective to inhibit angiogenesis in vivo. Fertilized chick eggs were kept in a humidified incubator at 37° C. After 3 days incubation, about 2 ml of egg albumin were removed with hypodermic needle to allow CAM and yolk sac to drop away from the shell membrane. On day 3.5, the shell was punched out and removed to be a circular window and the shell membrane was removed. For testing of angiogenesis inhibition, a pieces of thermanox coverslip was coated with the isocoumarin derivatives dissolved in ethanol at concentration of 1, 5 and 10 μg/coverslip and the ethanol was evaporated. The thermanox coverslip were placed on the chorioallantoic membranes at 4.5-day old chick embryo. After 2 days incubation at 37° C., 1-2 ml of 10% fat emulsion was injected into chorioallantois and observed blood vessel formation during an embryogenesis or development procedure under a microscope. As a positive control, 1 μg/egg of retinoic acid was used and a negative control was non-treated. coverslip.

HUVEC = experiment: Cytotoxicity to HUVEC; type: cell-based, human; settings: same concentrations as in the angiogenesis inhibition
[4] = Homo sapiens, length of capillary tubes vs control, read-out: Inhibitory activity (%) against tube formation

| SMILES | Death and clinical symptoms [1] | Toxic signs in weight change, serologic test, serobiochemical test, corpse examination [1] | LD50 [1] [mg/kg] | Lowest concentration still inhibiting differentiation of HUVEC into capillary tubes [2] [µg/mL] | inhibition at 0.05 µg/mL ([2]; Homo sapiens, 0.05 μg/ml, length of capillary tubes vs control, read-out: Inhibitory activity (%) against tube formation) [%] | inhibition at 0.2 µg/mL ([2]; Homo sapiens, 0.2 μg/ml, length of capillary tubes vs control, read-out: Inhibitory activity (%) against tube formation) [%] | inhibition at 0.5 µg/mL [2, 4] [%] | inhibition at 1 µg/mL [2, 4] [%] | Inhibition rate (%) ([3]; 1 μg/egg) | Inhibition rate (%) ([3]; 5 μg/egg) | Inhibition rate (%) ([3]; 10 μg/egg) | Cytotoxicity to HUVEC (HUVEC) | inhibition at 4 µg/mL ([2]; Homo sapiens, 4 μg/ml, length of capillary tubes vs control, read-out: Inhibitory activity (%) against tube formation) [%] | inhibition at 10 µg/mL ([2]; Homo sapiens, 10 μg/ml, length of capillary tubes vs control, read-out: Inhibitory activity (%) against tube formation) [%] | Inhibition rate (%) ([3]; 10 μg/egg, listed as 6,8-dihydroxy-4-(1-hydroxyetyl)-isocoumarin) |
| --- | --- | --- | --- | --- | --- | --- | --- | --- | --- | --- | --- | --- | --- | --- | --- |
| CC(=O)c1coc(=O)c2c(O)cc(O)cc12 [6,8-dihydroxy-4-acetyl-isocoumarin] | Neither sudden death nor noticeable clinical symptoms were detected | no toxic signs were observed | ≥ 300 | 0.2 | 0 | 50 | 85 | 100 | 50.0 | 83.3 | 93.3 | no cytotoxicity; also recorded: did not show cytotoxicity |  |  |  |
| CC(O)c1coc(=O)c2c(O)cc(O)cc12 (centres unmarked) [6,8-dihydroxy-4-(1-hydroxyethyl)-isocoumarin] | Neither sudden death nor noticeable clinical symptoms were detected | no toxic signs were observed | ≥ 300 | 4 |  |  | 0 | 0 | 27.3 | 66.7 | 83.3 | did not show cytotoxicity | 60 | 100 | 78.6 |
| CC1=C(/C=C/C(C)=C/C=C/C(C)=C/C(=O)O)C(C)(C)CCC1 [retinoic acid, reference compound] |  |  |  |  |  |  |  |  | 79.2 |  |  |  |  |  |  |
